Test results reported in ChEMBL document CHEMBL1159235, “The novel desmethyldestruxin B2, from Metarhizium anisopliae, that suppresses hepatitis B virus surface antigen production in human hepatoma cells” (J Nat Prod, 1995).
Values after ≈ are worked out from the molar mass of the structure shown. Where a SMILES comes first, the peptide text is derived from it. [ ]: non-standard residue; d: D form. dLac(3-vinyl) = C=CC[C@@H](O)C(=O)O; dHica = CC(C)C[C@@H](O)C(=O)O; NMeV = CN[C@H](C(=O)O)C(C)C; NMeA = CN[C@@H](C)C(=O)O; βAla = NCCC(=O)O

What follows are molecules tested on Hepatitis B virus (assay: Antiviral activity against Hepatitis B virus infected in human Hep3B cells assessed as surface antigen production).
Format: functional, organism-based, Hep 3B2

Structure (SMILES)	IC50
CC[C@H](C)[C@@H]1NC(=O)[C@@H]2CCCN2C(=O)[C@@H](CC(C)C)OC(=O)CCNC(=O)[C@H](C)N(C)C(=O)[C@H](C(C)C)N(C)C1=O (cyclo(I[NMeV][NMeA][βAla][dHica]P))	0.2 mg/L (≈ 0.337 µM)
C=CC[C@H]1OC(=O)CCNC(=O)[C@H](C)N(C)C(=O)[C@H](C(C)C)N(C)C(=O)[C@H]([C@@H](C)CC)NC(=O)[C@@H]2CCCN2C1=O (cyclo(I[NMeV][NMeA][βAla][dLac(3-vinyl)]P))	0.1 mg/L (≈ 0.173 µM)
C=CC[C@H]1OC(=O)CCNC(=O)[C@H](C)N(C)C(=O)[C@H](C(C)C)NC(=O)[C@H]([C@@H](C)CC)NC(=O)[C@@H]2CCCN2C1=O [DESMETHYLDESTRUXIN A]	1.2 mg/L (≈ 2.13 µM)
CC(C)C[C@H]1OC(=O)CCNC(=O)[C@H](C)N(C)C(=O)[C@H](C(C)C)NC(=O)[C@H](C(C)C)NC(=O)[C@@H]2CCCN2C1=O [DESMETHYLDESTRUXIN B2] (cyclo([NMeA][βAla][dHica]PVV))	1.5 mg/L (≈ 2.65 µM)
CC[C@H](C)[C@@H]1NC(=O)[C@@H]2CCCN2C(=O)[C@@H](CC(C)C)OC(=O)CCNC(=O)[C@H](C)N(C)C(=O)[C@H](C(C)C)NC1=O [DESMETHYLDESTRUXIN B] (cyclo(IV[NMeA][βAla][dHica]P))	0.6 mg/L (≈ 1.03 µM)
C=CC[C@H]1OC(=O)CCNC(=O)[C@H](C)N(C)C(=O)[C@H](C(C)C)N(C)C(=O)[C@H](C(C)C)NC(=O)[C@@H]2CCCN2C1=O [DESTRUXIN A2] (cyclo([NMeA][βAla][dLac(3-vinyl)]PV[NMeV]))	0.4 mg/L (≈ 0.71 µM)
CC(C)C[C@H]1OC(=O)CCNC(=O)[C@H](C)N(C)C(=O)[C@H](C(C)C)N(C)C(=O)[C@H](C(C)C)NC(=O)[C@@H]2CCCN2C1=O [DESTRUXIN B2] (cyclo([NMeA][βAla][dHica]PV[NMeV]))	0.3 mg/L (≈ 0.517 µM)
